Earlier results in patent US20160304829A1, “Automated Superparamagnetic Particle Handling System” (LIFE TECHNOLOGIES AS, priority 2006, published 2016).

Target: streptavidin (Streptomyces avidinii, UniProt P22629)
Details: Piran & Riordan 1990

streptavidin, sequence (P22629 25-183): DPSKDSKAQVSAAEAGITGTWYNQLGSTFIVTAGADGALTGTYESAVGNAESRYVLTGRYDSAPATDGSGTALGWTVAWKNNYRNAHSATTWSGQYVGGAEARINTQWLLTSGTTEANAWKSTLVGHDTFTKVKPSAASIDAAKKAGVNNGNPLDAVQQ

For `O=C(O)CCCC[C@@H]1SC[C@@H]2NC(=O)N[C@@H]21` [biotin, cis-hexahydro-2oxo-1H-thieno [3,4]imidazole-4-pentanoic acid], the “dissociation from streptavidin, times faster than dissociation from avidin” value is given as “about 30 times”.
